According to patent publication US20040247607A1, “Use of surfactants to stabilize oocysts” (priority 1999, published 2004):

System: oocysts
Assay: Evaluation of naturally derived surfactants for decreasing and preventing oocyst aggregation
Source text: In one aspect, the present invention provides a method for evaluating the ability of a surfactant to prevent aggregation of oocysts, sporocysts, and/or sporozoites. The method comprises adding a surfactant to a composition that comprises oocysts, sporocysts, sporozoites, or any combination thereof, at a concentration sufficient to prevent aggregation of the oocysts, sporocysts, and/or sporozoites (i.e. a test concentration). The resulting composition is then agitated, for example, by shaking manually or via an automatic shaker. As previously described, agitating the composition exposes the oocysts, sporocysts, and/or sporozoites to air or other gases, and promotes aggregation. After agitation, the composition is evaluated to determine whether any aggregation has occurred. Preferably, evaluation occurs by visually observing the composition for the presence of aggregated oocysts, sporocysts, and/or sporozoites. […]
In another aspect, the present invention provides a method for evaluating the ability of a surfactant to reduce oocyst, sporocyst, and/or sporozoite aggregation. […] Upon addition of the surfactant, the resulting composition is agitated, as previously described, and then evaluated to determine whether the aggregation has been reduced or eliminated entirely by addition of the surfactant. […]

Substance	decreasing and preventing aggregation of oocysts
serum albumin	effective
casein	effective
